{"source": "ChEMBL document CHEMBL1140271", "about": "“Synthesis and antibacterial activity of 5-methoxy- and 5-hydroxy-6-fluoro-1,8-naphthyridone-3-carboxylic acid derivatives” (Bioorg Med Chem Lett, 2005)", "key": {"Haemophilus influenzae": {"test_system": "Haemophilus influenzae", "experiment": "Minimum inhibitory concentration against Haemophilus influenzae GYR 1435 gram-negative strain", "format": "functional"}, "Streptococcus pneumoniae [1]": {"test_system": "Streptococcus pneumoniae", "experiment": "Minimum inhibitory concentration against Streptococcus pneumoniae 7257 Quinolone-resistant strain", "format": "functional"}, "Streptococcus pneumoniae [2]": {"test_system": "Streptococcus pneumoniae", "experiment": "Inhibitory concentration against Streptococcus pneumoniae translation", "format": "functional, organism-based"}}}
{"smiles": "NC1CCN(c2nc3ncc(C(=O)O)c(O)c3cc2F)C1", "note": "(centres undefined)", "values": [{"measurement": "MIC", "setting": "Haemophilus influenzae", "result": 4, "unit": "µg/mL"}, {"measurement": "MIC", "setting": "Streptococcus pneumoniae [1]", "result": 32, "unit": "µg/mL"}, {"measurement": "IC50", "setting": "Streptococcus pneumoniae [2]", "result": 7, "unit": "µM"}]}
{"smiles": "O=C(O)c1cnc2nc(N3CCCC3)c(F)c(O)c2c1O", "values": [{"measurement": "MIC", "setting": "Haemophilus influenzae", "result": 4, "unit": "µg/mL"}, {"measurement": "MIC", "setting": "Streptococcus pneumoniae [1]", "result": 4, "unit": "µg/mL"}, {"measurement": "IC50", "setting": "Streptococcus pneumoniae [2]", "result": 51, "unit": "µM"}]}
{"smiles": "COc1c(F)c(N2CCCC2)nc2ncc(C(=O)O)c(O)c12", "values": [{"measurement": "MIC", "setting": "Haemophilus influenzae", "result": 64, "unit": "µg/mL"}, {"measurement": "MIC", "setting": "Streptococcus pneumoniae [1]", "result": 32, "unit": "µg/mL"}, {"measurement": "IC50", "setting": "Streptococcus pneumoniae [2]", "result": 32, "unit": "µM"}]}
{"smiles": "COc1c(F)c(N2CCC(N)C2)nc2ncc(C(=O)O)c(O)c12", "note": "(centres undefined)", "values": [{"measurement": "MIC", "setting": "Haemophilus influenzae", "result": 64, "unit": "µg/mL"}, {"measurement": "MIC", "setting": "Streptococcus pneumoniae [1]", "result": 64, "unit": "µg/mL"}, {"measurement": "IC50", "setting": "Streptococcus pneumoniae [2]", "result": 4, "unit": "µM"}]}
{"smiles": "O=C(O)c1cnc2nc(N3CCC3)c(F)c(O)c2c1O", "values": [{"measurement": "MIC", "setting": "Haemophilus influenzae", "result": 64, "unit": "µg/mL"}, {"measurement": "MIC", "setting": "Streptococcus pneumoniae [1]", "result": 64, "unit": "µg/mL"}, {"measurement": "IC50", "setting": "Streptococcus pneumoniae [2]", "result": 200, "unit": "µM"}]}
{"smiles": "COc1c(F)c(N2CCC2)nc2ncc(C(=O)O)c(O)c12", "values": [{"measurement": "MIC", "setting": "Haemophilus influenzae", "result": 32, "unit": "µg/mL"}, {"measurement": "MIC", "setting": "Streptococcus pneumoniae [1]", "result": 8, "unit": "µg/mL"}, {"measurement": "IC50", "setting": "Streptococcus pneumoniae [2]", "result": 14, "unit": "µM"}]}
{"smiles": "O=C(O)c1cnc2nc(N3CCC3)c(F)cc2c1O", "values": [{"measurement": "MIC", "setting": "Haemophilus influenzae", "result": 1, "unit": "µg/mL"}, {"measurement": "MIC", "setting": "Streptococcus pneumoniae [1]", "result": 4, "unit": "µg/mL"}, {"measurement": "IC50", "setting": "Streptococcus pneumoniae [2]", "result": 5, "unit": "µM"}]}
{"smiles": "O=C(O)c1cnc2nc(N3CCCC3)c(F)cc2c1O", "values": [{"measurement": "MIC", "setting": "Haemophilus influenzae", "result": 1, "unit": "µg/mL"}, {"measurement": "MIC", "setting": "Streptococcus pneumoniae [1]", "result": 4, "unit": "µg/mL"}, {"measurement": "IC50", "setting": "Streptococcus pneumoniae [2]", "result": 10, "unit": "µM"}]}
{"smiles": "NC1CCN(c2nc3ncc(C(=O)O)c(O)c3c(O)c2F)C1", "note": "(centres undefined)", "values": [{"measurement": "MIC", "setting": "Haemophilus influenzae", "result": 32, "unit": "µg/mL"}, {"measurement": "MIC", "setting": "Streptococcus pneumoniae [1]", "result": 64, "unit": "µg/mL"}, {"measurement": "IC50", "setting": "Streptococcus pneumoniae [2]", "result": 17, "unit": "µM"}]}
{"smiles": "C[C@H]1COc2c(N3CCN(C)CC3)c(F)cc3c(=O)c(C(=O)O)cn1c23.C[C@H]1COc2c(N3CCN(C)CC3)c(F)cc3c(=O)c(C(=O)O)cn1c23.O", "note": "[LEVOFLOXACIN]", "values": [{"measurement": "MIC", "setting": "Haemophilus influenzae", "result": 0.015, "unit": "µg/mL"}, {"measurement": "IC50", "setting": "Streptococcus pneumoniae [2]", "result": "> 100", "unit": "µM"}]}
